Inconclusive results are not listed.
Tested on: washed human platelets, SFLLRN aggregation after wash, transmittance
Assay: washed human platelet aggregation block persisting post-wash – cell-based, aggregometer, SFLLRN stimulus, single point, dry powder, mechanism study for PDI inhibitor project, late-stage follow-up (AID 652274)
Settings: at 30 µM

Structure (SMILES): C/C1=C\C[C@H](OC(=O)c2ccc(O)cc2)/C(C)=C/[C@@H](O)C(C)(C)CCC1
- platelet aggregation inhibition after wash (%), active compounds read high: 100%

Reference: PubChem BioAssay AID652274 (Broad Institute, 2013)
